From patent US20240034758A1, “NOVEL PEPTIDE AND USE THEREOF” (MEDI & GENE, priority 2020, published 2024)

System: mHypoE-N41 hypothalamic cells
Assay: Expression of appetite-promoting genes in hypothalamic cells
Type: cell-based
Details: 100 nM, 24 hours; vs PBS control
Procedure: Furthermore, to confirm the appetite-regulating effect of the functional peptide in mHypoE-N41 hypothalamic cells, the hypothalamic cells were treated with PBS (control) and 100 nM mouse-derived functional peptide (experimental group) for 24 hours.

Row | Substance | decrease of Agrp gene level compared to the control [%] | decrease of NPY gene level compared to the control [%]
1 | human-derived functional peptide: Human IF1-derived peptide, SEQ ID NO: 2: GSDQSENVDRGAGSIREAGGAFGKREQAEEERYFRAQSREQLAALKK (listed as Homo sapiens) | 47.5 | 59.6
2 | mouse-derived functional peptide: Mouse IF1-derived peptide, SEQ ID NO: 1: VSDSSDSMDTGAGSIREAGGAFGKREKAEEDRYFREKTKEQLAALRK (listed as Mus musculus) | 50.2 | 48.8
